Experimental data: PMC11984924, “Dipeptidic Phosphonates: Potent Inhibitors of Pseudomonas aeruginosa Elastase B Showing Efficacy in a Murine Keratitis Model” (Advanced Science, 2025)

How the values were obtained:
[1] = Stability in minipig liver microsomes; format: in vitro ADME; details: Göttingen, read-out: Minipig Liver Microsomes t1/2
Procedure: Samples were stored on ice until the end of the incubation and precipitated protein was removed by centrifugation (15 min, 4 °C, 4,000 g). Concentration of the remaining test […]
compound at the different time points was analyzed by HPLC-MS/MS (TSQ Quantum Access […]
MAX, Thermo Fisher, Dreieich, Germany) and used to determine half -life (t1/2) and intrinsic […]
Species profiling was conducted as above using 0.5 mg/mL pooled mouse, rat or minipig liver microsomes (Xenotech, Kansas City, USA) with 2 mM NADPH and 10 mM MgCl2 and testosterone, verapamil and ketoconazole as reference compounds. […]
(§1) Thermo Fisher, Dreieich, Germany) and used to determine half-life (t1/2).
(§2) Table S2: Additional in vitro ADMET data for selected dipeptides. n.d.: not determined.
(§3) Kinetic Liver S9 Clint [µL/mg/min] Plasma t1/2 [min] LogD7.4 […]
(§4) pH 7.4 [µM] Mouse Human Mouse Human

[2] = Plasma stability, Göttingen minipig; format: in vitro ADME; details: read-out: Minipig Plasma t1/2
Procedure: To determine stability in plasma, the compound (1 µM) was incubated with pooled CD -1 […]
mouse/human/Wistar rat or Göttingen minipig plasma (Neo Biotech, Nanterre, France).
Samples were taken by mixing aliquots with 4 volumes of acetonitrile containing internal […]
standard (125 nM diphenhydramine). The plasma stability of procain, propantheline and diltiazem were determined in parallel to confirm the enzymatic activity. Samples were stored […]
on ice until the end of the incubation and precipitated protein was removed by centrifugation […]
(15 min, 4 °C, 4,000 g, two centrifugation steps). Concentration of the remaining test compound at the different time points was analyzed by HPLC-MS/MS (TSQ Quantum Access MAX, […]
as §1, §2, §3, §4

[3] = In vivo pharmacokinetic study in CD-1 mice, 30 mg/kg SC; details: male, mouse, 30 mg/kg subcutaneous
Procedure: page 60: Figure S7: Basolateral concentration of 9 (A) and 30 (B) in the Calu-3 permeability model. […] For pharmacokinetic experiments, outbred male CD-1 mice (Charles River, Netherlands), 4 weeks old, were used. The animal studies were conducted in accordance with the recommendations of the European Community (Directive 2010/63/EU, 1st January 2013). All animal procedures were performed in strict accordance with the German regulations of the Society for Laboratory Animal Science (GV-SOLAS) and the European Health Law of the Federation of Laboratory Animal Science Associations (FELASA). Animals were excluded from further analysis if sacrifice was necessary according to the human endpoints established by the ethical board. All experiments were approved by the ethical board of the […] Verbraucherschutz und […], Oldenburg, Germany. 30 was subjected to a focused PK study and was administered 30 mg/kg SC. At time points t= […] euthanatized and blood was collected from the heart. For all PK studies, whole blood was collected into Eppendorf tubes coated with 0.5 M EDTA and immediately spun down at 13,000 rpm for 10 min at 4°C. The plasma was transferred into a new Eppendorf tube and then stored at -80°C until analysis. Then, a broncheoalveolar lavage was conducted using isotonic sodium chloride solution for all PK studies. For all PK studies, lung, kidney and liver were aseptically removed and homogenized using a Polytron (Kinematica) in isotonic sodium chloride solution. Organ samples were aliquoted into Eppendorf tubes and stored at -80°C until analysis. Moreover, spontaneous urine was also collected. […] system and coupled to an AB Sciex QTrap6500+ mass spectrometer as described previously.[10] Mass spectrometric conditions can be found in Table S5. First, a calibration curve was prepared by spiking different concentrations of 30 into the respective matrix (mouse […] (1 picture or pasted object on this page, not shown here) page 61: plasma (pooled, from CD-1 mice) for plasma samples, isotonic sodium chloride solution for BALF samples, lung tissue for lung samples, kidney tissue for kidney samples, liver tissue for liver samples and urine for urine samples). Caffeine was used as an internal standard. In addition, quality control samples (QCs) were prepared for 30 with the respective matrix. The following extraction procedure was used: 7.5 μl of a plasma sample (calibration samples, QCs […] internal standard for 5 min at 2000 rpm on an Eppendorf MixMate® vortex mixer. 10 μl of a urine sample (calibration samples, QCs or PK samples) was extracted with 40 μl of methanol containing 12.5 ng/ml of caffeine as internal standard for 5 min at 2000 rpm on an Eppendorf MixMate® vortex mixer. Then samples (plasma and urine) were spun down at 13.000 rpm for 5 min. Supernatants were transferred to standard HPLC-glass vials. 50 μl of a BALF / lung tissue / kidney tissue or liver tissue sample (calibration samples, QCs or PK samples) were extracted with 50 μl of methanol and 1 μl caffeine (concentration 1 μg/ml in methanol) for 5 min at 800 rpm on an Eppendorf MixMate® vortex mixer. Then samples (BALF, liver, kidney, lung) were spun down at 4,000 rpm for 40 min at 4°C. Supernatants were transferred to 96well V-bottom plates (Greiner). Urea was used to enable calculation of epithelial lining fluid (ELF) concentrations. Peak areas of each sample and of the corresponding internal standard were analyzed using MultiQuant 3.0 software (AB Sciex). Peak areas of the respective sample were normalized to the internal standard peak area. Peaks of PK samples were quantified using the calibration curve. The accuracy of the calibration curve was determined using QCs independently prepared on different days. PK parameters were determined using a non- compartmental analysis with PKSolver.[11] ELF concentrations were calculated using the following formula (2).[12] (1) V_ELF=V_BALF × (Urea_BALF)/(Urea_Plasma ) (2) c_ELF=c_BALF× V_BALF/V_ELF S60

CC(=O)c1ccc(NC(=O)[C@@H](NC(=O)C(CC(C)C)P(=O)(O)O)C(C)C)cc1 (stereo partly drawn) [compound 30]
half-life at 1 µM [1]: > 2 h | half-life at 1 µM [2]: > 4 h | Kp ([3]; CD-1, epithelial lining fluid (ELF) / plasma, sc, read-out: ELF/plasma ratio): ~0.38 | AUC(0-t) ([3]; CD-1, sc, plasma): 249 ± 15.5 µg·h/mL | CL/F ([3]; CD-1, sc, plasma): 1.3 ± 0.3 mL/min/kg | Cmax ([3]; CD-1, sc, plasma): 32200 ± 8500 ng/mL | MRT ([3]; CD-1, sc, plasma): 24.6 ± 16 h | Tmax ([3]; CD-1, sc, plasma): 0.75 ± 0.4 h | half-life ([3]; CD-1, sc, plasma): 18.5 ± 11 h
